Reference: ChEMBL document CHEMBL4393714, “Multi-targeting protein-protein interaction inhibitors: Evolution of macrocyclic ligands with embedded carbohydrates (MECs) to improve selectivity” (Eur J Med Chem, 2019)

What was measured:
Substance-K receptor = target: T1, Substance-K receptor (Homo sapiens, UniProt P21452); assay: Displacement of [125I]NKA from human recombinant NK2 receptor measured after 60 mins by scintillation counter method
T1 sequence (P21452 whole entry): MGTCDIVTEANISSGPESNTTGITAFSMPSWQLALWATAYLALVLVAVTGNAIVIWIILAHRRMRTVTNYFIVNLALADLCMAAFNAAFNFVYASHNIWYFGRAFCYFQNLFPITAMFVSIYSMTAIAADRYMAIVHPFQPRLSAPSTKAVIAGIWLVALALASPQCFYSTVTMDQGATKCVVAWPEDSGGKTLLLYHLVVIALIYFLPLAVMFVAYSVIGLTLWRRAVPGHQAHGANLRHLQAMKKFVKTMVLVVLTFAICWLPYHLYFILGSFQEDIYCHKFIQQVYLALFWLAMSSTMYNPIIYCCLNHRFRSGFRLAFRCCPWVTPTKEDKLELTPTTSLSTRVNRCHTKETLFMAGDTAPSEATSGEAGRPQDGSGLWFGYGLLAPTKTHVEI

[1] = target: T2, 5-hydroxytryptamine receptor 1A (Homo sapiens, UniProt P08908); assay: Displacement of [3H]OH-DPAT from human recombinant 5-HT1A receptor measured after 60 mins by scintillation counter method
T2 sequence (P08908 whole entry): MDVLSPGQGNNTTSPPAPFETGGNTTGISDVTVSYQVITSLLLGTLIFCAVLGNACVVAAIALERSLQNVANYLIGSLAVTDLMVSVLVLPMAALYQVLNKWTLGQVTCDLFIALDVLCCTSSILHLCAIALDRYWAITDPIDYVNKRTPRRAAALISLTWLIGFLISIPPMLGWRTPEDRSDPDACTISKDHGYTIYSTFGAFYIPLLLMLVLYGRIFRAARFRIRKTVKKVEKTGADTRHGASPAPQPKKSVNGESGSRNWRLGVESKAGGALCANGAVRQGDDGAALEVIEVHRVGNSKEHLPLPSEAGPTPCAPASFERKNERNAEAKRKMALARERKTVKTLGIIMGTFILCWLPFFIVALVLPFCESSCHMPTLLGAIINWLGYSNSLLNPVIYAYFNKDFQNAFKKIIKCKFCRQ

[2] = target: 5-hydroxytryptamine receptor 2A (Homo sapiens, UniProt P28223); assay: Displacement of [3H] ketanserin from human recombinant 5-HT2A receptor measured after 60 mins by scintillation counter method
5-hydroxytryptamine receptor 2A, sequence (P28223 whole entry): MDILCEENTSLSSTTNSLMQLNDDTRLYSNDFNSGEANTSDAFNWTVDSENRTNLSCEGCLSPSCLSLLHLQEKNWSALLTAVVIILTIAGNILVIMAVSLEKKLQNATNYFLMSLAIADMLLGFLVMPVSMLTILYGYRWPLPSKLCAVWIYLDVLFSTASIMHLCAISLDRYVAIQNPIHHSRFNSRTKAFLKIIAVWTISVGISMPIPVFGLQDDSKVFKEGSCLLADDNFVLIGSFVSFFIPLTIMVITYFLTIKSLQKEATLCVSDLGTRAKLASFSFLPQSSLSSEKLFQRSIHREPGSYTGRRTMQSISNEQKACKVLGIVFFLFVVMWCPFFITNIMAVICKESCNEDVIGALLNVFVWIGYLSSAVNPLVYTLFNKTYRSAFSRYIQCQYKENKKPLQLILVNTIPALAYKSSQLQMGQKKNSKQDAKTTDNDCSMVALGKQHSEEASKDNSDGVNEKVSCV

[3] = target: 5-hydroxytryptamine receptor 2B (Homo sapiens, UniProt P41595); assay: Antagonist activity at human recombinant 5-HT2B receptor in CHOK1 cells measured after 30 mins by HTRF assay; format: cell-based
5-hydroxytryptamine receptor 2B, sequence (P41595 whole entry): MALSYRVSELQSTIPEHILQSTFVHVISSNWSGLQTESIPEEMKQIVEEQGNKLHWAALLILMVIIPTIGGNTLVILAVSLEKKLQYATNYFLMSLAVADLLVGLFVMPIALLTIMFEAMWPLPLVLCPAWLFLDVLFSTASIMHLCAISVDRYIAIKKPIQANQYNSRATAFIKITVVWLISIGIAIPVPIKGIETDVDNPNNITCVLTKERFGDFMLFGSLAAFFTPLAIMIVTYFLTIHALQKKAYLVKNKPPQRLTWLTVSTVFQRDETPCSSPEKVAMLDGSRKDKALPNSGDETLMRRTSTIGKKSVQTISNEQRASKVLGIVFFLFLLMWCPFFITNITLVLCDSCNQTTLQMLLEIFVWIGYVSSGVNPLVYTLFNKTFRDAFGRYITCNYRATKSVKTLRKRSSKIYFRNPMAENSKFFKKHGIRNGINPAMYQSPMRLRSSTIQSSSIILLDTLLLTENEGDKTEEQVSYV

[4] = Displacement of [3H] batrachotoxinin from rat sodium channel site 2 measured after 60 mins by scintillation counter method
[5] = target: Sodium-dependent serotonin transporter (Homo sapiens, UniProt P31645); assay: Displacement of [3H] imipramine from human recombinant 5-HT transporter measured after 60 mins by scintillation counter method
Sodium-dependent serotonin transporter, sequence (P31645 whole entry): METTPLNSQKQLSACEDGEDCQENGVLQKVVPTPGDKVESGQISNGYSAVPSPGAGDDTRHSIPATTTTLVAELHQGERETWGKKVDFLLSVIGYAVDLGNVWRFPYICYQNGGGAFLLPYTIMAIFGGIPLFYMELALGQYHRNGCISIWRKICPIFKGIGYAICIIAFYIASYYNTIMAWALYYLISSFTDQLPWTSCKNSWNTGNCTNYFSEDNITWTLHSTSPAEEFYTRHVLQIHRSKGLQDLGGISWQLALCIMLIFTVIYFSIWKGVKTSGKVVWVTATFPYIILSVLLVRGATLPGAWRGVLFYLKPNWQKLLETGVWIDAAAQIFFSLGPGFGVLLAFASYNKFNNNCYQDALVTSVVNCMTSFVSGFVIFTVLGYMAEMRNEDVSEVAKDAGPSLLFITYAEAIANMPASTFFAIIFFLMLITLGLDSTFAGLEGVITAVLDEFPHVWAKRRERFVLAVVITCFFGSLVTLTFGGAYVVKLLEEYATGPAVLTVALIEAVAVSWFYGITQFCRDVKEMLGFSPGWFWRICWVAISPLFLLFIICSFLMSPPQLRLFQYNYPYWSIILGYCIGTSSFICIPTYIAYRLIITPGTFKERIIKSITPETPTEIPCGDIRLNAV

| Compound | IC50 (Substance-K receptor) | Ki (Substance-K receptor) | IC50 [1] | Ki [1] | IC50 [2] | Ki [2] | IC50 [3] | Ki [3] | IC50 [4] | Ki [4] | IC50 [5] | Ki [5] |
| --- | --- | --- | --- | --- | --- | --- | --- | --- | --- | --- | --- | --- |
| CC(C)CCO[C@@H]1[C@H]2OC(C)(C)O[C@H]2[C@H]2COCc3cn(nn3)C[C@H]3O[C@H](CCN(CCc4ccc5ccccc5c4)CC[C@H]1O2)[C@H](OCCC(C)C)[C@H]1OC(C)(C)O[C@H]13 | 3 µM | 1.6 µM | 0.68 µM | 0.42 µM | 8.7 µM | 4.7 µM | 15 µM | 8.2 µM | 0.46 µM | 0.41 µM | > 100 µM | > 100 µM |
| CN1C[C@@H](NS(=O)(=O)N(C)C)C[C@@H]2c3cccc4c3c(cn4C)C[C@H]21 [MESULERGINE] |  |  |  |  |  |  | 0.0052 µM | 0.0028 µM |  |  |  |  |
| COc1ccc(C(=O)O[C@H]2CC[C@@]3(C)[C@@H]4CC[C@H]5[C@]6(O)C[C@H](O)[C@@]7(O)[C@@H](CN8C[C@@H](C)CC[C@H]8[C@@]7(C)O)[C@]6(O)C[C@@]53O[C@]24O)cc1OC [VERATRIDINE] |  |  |  |  |  |  |  |  | 8.9 µM | 8.1 µM |  |  |
